Where a name gives a salt, the structure may show the parent alone.
Experiments:
[1] = Stability / clarity of reconstituted aqueous solution; assay type: physicochemical
Experimental: Stability: 15 mg salt was reconstituted with 10 ml sterile water.
The product salt may be reconstituted with water to give a 5-7.5 mg/ml solution which remains clear at 17°C for at least 6 hours.
(§1) The above mixture can be rapidly (<3 min.) reconstituted with sterile water. The 50 mg/ml solution and 1, 2, 5 and 10 mg/ml dilutions remain clear for at least 24 hours at 15-20°C.
(§2) The above mixture is made according to the general procedure of Example 5.

Solubility in water = assay type: physicochemical
[2] = Reconstitution time with water; assay type: physicochemical; details: 5, 7.5 and 10 mg/ml; at 24°C (75°F)
Experimental: Reconstituted aqueous solutions of 5, 7.5 and 10 mg/ml were readily obtained with 3 minutes shaking at 24°C (75°F). Solubility of the salt in water at room temperature is at least 15 mg/ml.
as §1, §2

[3] = Compatibility with ions in aqueous solution; assay type: physicochemical; details: insoluble precipitates form
Experimental: The solid compositions (all three types) provided according to the present invention are reconstituted with sterile water or sterile aqueous vehicle. The preferred unit dosage forms described above may, for example, be reconstituted with one milliliter of sterile water or sterile aqueous vehicle to form relatively concentrated m-AMSA solutions or such solutions may be diluted to form more dilute (e.g. 5 mg/ml m-AMSA activity) solutions. […] Reconstitution, therefore, should be effected with vehicles substantially free of the above-mentioned ions.
Caution: Solutions of m-AMSA are incompatible with chloride, sulfate, phosphate and carbonate ions. Precipitates form.

[4] = prior art statement; cited from earlier work
animal tumor systems = details: Cain, et al., Europ. J. Cancer 10:539-549 (1974); cited from earlier work

## COc1cc(NS(C)(=O)=O)ccc1Nc1c2ccccc2nc2ccccc12 [Preparation 4, Crystalline L(+)-Monolactate hemiacetonate of m-AMSA]
[1]; 15 mg salt in 10 ml sterile water, after 2 weeks storage at 45°C
  activity loss: < 6%
[1]; 15 mg salt reconstituted with 10 ml sterile water
  Stability: time the solution was stable: at least 24 hours

## COc1cc(NS(C)(=O)=O)ccc1Nc1c2ccccc2nc2ccccc12 [Preparation 6, Crystalline DL-Monolactate acetone solvate of m-AMSA]
Solubility in water; at room temperature
  solubility: ≥ 15 mg/mL
[1]; 5-7.5 mg/ml solution in water at 17°C
  time solution remains clear: at least 6 hours
[2]
  shaking time to obtain reconstituted aqueous solutions: 3 min

## COc1cc(NS(C)(=O)=O)ccc1Nc1c2ccccc2nc2ccccc12 [Preparation 9, Crystalline m-AMSA monogluconate salt]
Solubility in water; at 50-60°C
  solubility: 30 mg/mL

## COc1cc(NS(C)(=O)=O)ccc1Nc1c2ccccc2nc2ccccc12 [m-AMSA, 4'-(9-acridinylamino)-methanesulfon-m-anisidide]
[3]
  compatibility in aqueous solution with chloride, sulfate, phosphate and carbonate ions: incompatible
[4]
  solubility in water (in words): very limited
Animal tumor systems
  antitumor activity: significant antitumor activity

## COc1cc(NS(C)(=O)=O)ccc1Nc1c2ccccc2nc2ccccc12.Cl [monohydrochloride]
[4]
  solubility in water (in words): insufficiently water-soluble

## COc1cc(NS(C)(=O)=O)ccc1Nc1c2ccccc2nc2ccccc12.CS(=O)(=O)O [monomethanesulfonate]
[4]
  solubility in water (in words): insufficiently water-soluble

— patent EP0042553B1, “Antitumor compositions” (Bristol-Myers Company, priority 1980, dated 1981)
